Laboratory results from US10596118B2, “Solid dispersions” (Shionogi Inc., priority 2015, dated 2020).
≈ marks a conversion by molar mass, not a printed value.

Assays:
[1] = Sun et al., 2012; cited from earlier work
[2] = Solubility by shake flask method with HPLC analysis; settings: thermodynamic from solid
Procedure: Solubility measurements of the solid dispersions and physical mixtures were performed using a shake flask method. Individual test samples comprising about 5 mg ospemifene, 30 mg of each physical mixture, or 30 mg of each solid dispersion, were mixed with 20 mL of an aqueous media (either water alone, 0.1N HCl, or a buffered aqueous solution comprising 50 mM phosphate, pH 6.8). The sample was agitated manually for 3 hours. Following mixing, a 1.5 mL sample was withdrawn to a micro-centrifuge tube and centrifuged at 12,000 rpm for 10 min. About 1 mL of supernatant was then transferred to a HPLC vial for HPLC analysis.
The solubilities of ospemifene solid dispersions, the control physical mixtures, and ospemifene alone were determined by HPLC in water, 0.1 N HCl, or 50 mM pH 6.8 buffer using a shake flask method, as described above.

[3] = physchem; settings: water or buffered solutions, aqueous buffer
[4] = Micro dissolution in simulated GI fluids (FaSSIF, FeSSIF) and pH 6.8 phosphate buffer; settings: for solubility in FeSSIF relative to FaSSIF: FeSSIF versus FaSSIF
Text: To investigate the in-vivo absorption process of ospemifene in the GI tract, a dissolution method using simulated GI fluids (FaSSIF and FeSSIF) was developed to simulate drug dissolution in-vivo. The abbreviation “FaSSIF” stands for fasted state simulated intestinal fluid, while the abbreviation “FeSSIF” stands for fed state simulated intestinal fluid. […] FaSSIF and FeSSIF media are commercially available from Biorelevant and were used according to the manufacturer's instructions.
Micro dissolution was conducted in a centrifuge vial containing 1.5 mL of dissolution medium (either FaSSIF or FeSSIF) at room temperature. […] The vials were centrifuged at 30 min, 1, 2 and 3 hour(s) at 14,000 rpm for one minute and 50 μL of supernatant was transferred to an HPLC vial and diluted with 50 μL acetonitrile and assayed by HPLC.
The detector was set at 235 nm. Two mobile phases were used, mobile phase A and mobile phase B. Mobile phase A was 800/200/40 (v/v/v) deionized water/acetonitrile/tetrahydrofuran and mobile phase B was 100% acetonitrile.
For drug content analysis, the same HPLC column and mobile phases were used but the flow rate of the mobile phases was 1 ml/min, the injection volume was 7 μL and the gradient program was as follows: […]

[5] = physchem; settings: organic solvent or mixture, thermodynamic from solid
Text: In developing methods of evaluating the solubility of the various compositions produced in these studies, a common solvent was selected that was capable of dissolving both ospemifene and each of the hydrophilic carriers being evaluated. […] Thus, an incremental solvent addition method was used to estimate the solubility in methanol and ethanol co-solvent mixture.

[6] = oral administration of a 60 mg dose; cited from earlier work
[7] = poor water solubility and high permeability

COc1ccc2c(c1)c(CC(=O)O)c(C)n2C(=O)c1ccc(Cl)cc1 [indomethacin]
maximum solubility enhancement observed with HPMCAS or PVP [1]: 9 fold

OCCOc1ccc(/C(=C(/CCCl)c2ccccc2)c2ccccc2)cc1 [Ospemifene (OSP), ospemifene]
solubility at 3 h ([2]; pH 6.8, aqueous buffer): < 0.03 µg/mL | solubility at 3 h ([2]; simulated gastric fluid): < 0.03 µg/mL | solubility at 3 h ([2]; water): 0.04 µg/mL (≈ 0.106 µM) | solubility [3]: < 0.3 µg/mL | time the amount of drug in solution remains relatively stable ([4]; FeSSIF and FaSSIF): 2 to 3 h | solubility in FeSSIF relative to FaSSIF ([4]; listed as micronized ospemifene): about 4 fold | solubility in FeSSIF relative to FaSSIF ([4]; listed as ospemifene alone): 2-3 fold | solubility at 2 h ([4]; fassif, thermodynamic from solid): 10 µg/mL (≈ 26.4 µM) | solubility ([4]; fessif, thermodynamic from solid): 45 µg/mL (≈ 119 µM) | solubility ([4]; pH 6.8, aqueous buffer): < 10 µg/mL | solubility ([5]; solubility in ethanol, ethanol): ~57000 µg/mL (≈ 150000 µM) | solubility ([5]; solubility in methanol, methanol): ~67000 µg/mL (≈ 177000 µM) | share of total dose eliminated via the fecal route [6]: 75% | BCS class [7]: BCS class II
